{"source": "PubChem BioAssay AID1259411", "about": "(Chemical Carcinogenesis Research Information System (CCRIS), 2018)", "tested_on": "rodent carcinogenicity bioassays, tumor incidence", "assay": "CCRIS carcinogenicity studies", "how_it_was_run": "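Archive of carcinogenicity, mutagenicity, tumor promotion and tumor inhibition results drawn from journals, NCI reports and other sources, expert-reviewed; covers 1985-2011 and is no longer updated.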", "note": "The source made the active and inactive calls. No rule for the calls is given here.", "data": [{"smiles": "CC(=O)Nc1ccc(C(=O)CCl)cc1", "values": [{"measurement": "carcinogen call", "setting": "Species: MOUSE, Strain/Sex: B6C3F1/FEMALE, Route: ORAL, Dose: 0, 5000, 10000 PPM IN DIET, Dose: 0, 5000, 10000 PPM IN DIET", "value": "inactive; negative"}, {"measurement": "carcinogen call", "setting": "Species: MOUSE, Strain/Sex: B6C3F1/MALE, Route: ORAL, Dose: 0, 5000, 10000 PPM IN DIET, Dose: 0, 5000, 10000 PPM IN DIET", "value": "inactive; negative"}, {"measurement": "carcinogen call", "setting": "Species: RAT, Strain/Sex: F344/FEMALE, Route: ORAL, Dose: 0, 1000, 2000 PPM IN DIET, Dose: 0, 1000, 2000 PPM IN DIET", "value": "inactive; negative"}, {"measurement": "carcinogen call", "setting": "Species: RAT, Strain/Sex: F344/MALE, Route: ORAL, Dose: 0, 1000, 2000 PPM IN DIET, Dose: 0, 1000, 2000 PPM IN DIET", "value": "inactive; negative"}]}, {"smiles": "CCOP(=S)(OCC)Oc1ccc2c(C)c(Cl)c(=O)oc2c1", "values": [{"measurement": "carcinogen call", "setting": "Species: MOUSE, Strain/Sex: B6C3F1/FEMALE, Route: ORAL, Dose: 0, 10, 20 PPM IN DIET, Dose: 0, 10, 20 PPM IN DIET", "value": "inactive; negative"}, {"measurement": "carcinogen call", "setting": "Species: MOUSE, Strain/Sex: B6C3F1/MALE, Route: ORAL, Dose: 0, 10, 20 PPM IN DIET, Dose: 0, 10, 20 PPM IN DIET", "value": "inactive; negative"}, {"measurement": "carcinogen call", "setting": "Species: RAT, Strain/Sex: F344/FEMALE, Route: ORAL, Dose: 0, 10, 20 PPM IN DIET, Dose: 0, 10, 20 PPM IN DIET", "value": "inactive; negative"}, {"measurement": "carcinogen call", "setting": "Species: RAT, Strain/Sex: F344/MALE, Route: ORAL, Dose: 0, 10, 20 PPM IN DIET, Dose: 0, 10, 20 PPM IN DIET", "value": "inactive; negative"}, {"measurement": "carcinogen call", "setting": "Species: Rat, Strain/Sex: Wistar/Female (50/group), Route: Oral, Dose: 0 (1% peanut oil), 1, 5, 25 ppm in diet for 24 mo, test material purity 99.2%, Dose: 0 (1% peanut oil), 1, 5, 25 ppm in diet for 24 mo, test material purity 99.2%", "value": "inactive; negative. according to dpr evaluator; original data not presented. cholinesteras"}, {"measurement": "carcinogen call", "setting": "Species: Rat, Strain/Sex: Wistar/Male (50/group), Route: Oral, Dose: 0 (1% peanut oil), 1, 5, 25 ppm in diet for 24 mo, test material purity 99.2%, Dose: 0 (1% peanut oil), 1, 5, 25 ppm in diet for 24 mo, test material purity 99.2%", "value": "inactive; negative. according to dpr evaluator; original data not presented. cholinesteras"}]}, {"smiles": "Nc1ccc2ccccc2c1", "values": [{"measurement": "carcinogen call", "setting": "Species: DOG, Route: ORAL, Tumor Site: Type of Lesion: URINARY BLADDER", "value": "active; positive"}, {"measurement": "carcinogen call", "setting": "Species: DOG, Strain/Sex: BEAGLE/FEMALE, Route: ORAL, Dose: 21.3 MG/KG 5/WK, Tumor Site: Type of Lesion: URINARY BLADDER: TRANSITIONAL CELL CARCINOMA", "value": "active; positive"}, {"measurement": "carcinogen call", "setting": "Species: DOG, Strain/Sex: BEAGLE/MALE, Route: ORAL, Dose: 18.4 MG/KG 5/WK, Tumor Site: Type of Lesion: URINARY BLADDER: TRANSITIONAL CELL CARCINOMA", "value": "active; positive"}, {"measurement": "carcinogen call", "setting": "Species: HAMSTER, Route: ORAL, Tumor Site: Type of Lesion: URINARY BLADDER", "value": "active; positive"}, {"measurement": "carcinogen call", "setting": "Species: HUMAN, Route: ORAL, INHALATION, DERMAL, Tumor Site: Type of Lesion: URINARY BLADDER", "value": "active; positive"}, {"measurement": "carcinogen call", "setting": "Species: MONKEY, Route: ORAL, Tumor Site: Type of Lesion: URINARY BLADDER", "value": "active; positive"}, {"measurement": "carcinogen call", "setting": "Species: MOUSE, Route: ORAL, Tumor Site: Type of Lesion: LIVER", "value": "active; positive"}]}, {"smiles": "O=S1OCC2C(CO1)C1(Cl)C(Cl)=C(Cl)C2(Cl)C1(Cl)Cl", "note": "(stereo not drawn)", "values": [{"measurement": "carcinogen call", "setting": "Species: MOUSE, Strain/Sex: B6C3F1/FEMALE, Route: ORAL, Dose: 0, 2.0, 3.9 PPM IN DIET, TWA, Dose: 0, 2.0, 3.9 PPM IN DIET, TWA", "value": "inactive; negative"}, {"measurement": "carcinogen call", "setting": "Species: MOUSE, Strain/Sex: NMRI/FEMALE, Route: ORAL, Dose: 0, 2, 6, 18 PPM IN THE DIET FOR 24 MO (STUDY DURATION: 24 MO), Dose: 0, 2, 6, 18 PPM IN THE DIET FOR 24 MO (STUDY DURATION: 24 MO)", "value": "inactive; negative"}, {"measurement": "carcinogen call", "setting": "Species: MOUSE, Strain/Sex: NMRI/MALE, Route: ORAL, Dose: 0, 2, 6, 18 PPM IN THE DIET FOR 24 MO (STUDY DURATION: 24 MO), Dose: 0, 2, 6, 18 PPM IN THE DIET FOR 24 MO (STUDY DURATION: 24 MO)", "value": "inactive; negative"}, {"measurement": "carcinogen call", "setting": "Species: Mouse, Strain/Sex: NMRI Hoe:NMRKf (SPF71)/Female (60/Group), Route: Oral, Dose: 0 (sesame oil), 2, 6, 18 ppm 97.1% endosulfan in diet for 24 mo, study duration 24 mo., Dose: 0 (sesame oil), 2, 6, 18 ppm 97.1% endosulfan in diet for 24 mo, study duration 24 mo.", "value": "inactive; negative"}, {"measurement": "carcinogen call", "setting": "Species: Mouse, Strain/Sex: NMRI Hoe:NMRKf (SPF71)/Male (60/Group), Route: Oral, Dose: 0 (sesame oil), 2, 6, 18 ppm 97.1% endosulfan in diet for 24 mo, study duration 24 mo., Dose: 0 (sesame oil), 2, 6, 18 ppm 97.1% endosulfan in diet for 24 mo, study duration 24 mo.", "value": "inactive; negative"}, {"measurement": "carcinogen call", "setting": "Species: RAT, Strain/Sex: OSBORNE-MENDEL/FEMALE, Route: ORAL, Dose: 0, 223, 445 PPM IN DIET, TWA, Dose: 0, 223, 445 PPM IN DIET, TWA", "value": "inactive; negative"}, {"measurement": "carcinogen call", "setting": "Species: RAT, Strain/Sex: SPRAGUE-DAWLEY/FEMALE, Route: ORAL, Dose: 0, 3, 7.5, 15, 75 PPM IN THE DIET FOR 104 WK (STUDY DURATION: 104 WK), Dose: 0, 3, 7.5, 15, 75 PPM IN THE DIET FOR 104 WK (STUDY DURATION: 104 WK)", "value": "inactive; negative"}, {"measurement": "carcinogen call", "setting": "Species: RAT, Strain/Sex: SPRAGUE-DAWLEY/MALE, Route: ORAL, Dose: 0, 3, 7.5, 15, 75 PPM IN THE DIET FOR 104 WK (STUDY DURATION: 104 WK), Dose: 0, 3, 7.5, 15, 75 PPM IN THE DIET FOR 104 WK (STUDY DURATION: 104 WK)", "value": "inactive; negative"}, {"measurement": "carcinogen call", "setting": "Species: Rat, Strain/Sex: Crl:CD (SD) BR/Female (50/Group), Route: Oral, Dose: 0, 3.0, 7.5, 15.0, 75.0 ppm in corn oil in diet for 104 wk, study duration 104 wk, Dose: 0, 3.0, 7.5, 15.0, 75.0 ppm in corn oil in diet for 104 wk, study duration 104 wk", "value": "inactive; negative"}, {"measurement": "carcinogen call", "setting": "Species: Rat, Strain/Sex: Crl:CD (SD) BR/Male (50/Group), Route: Oral, Dose: 0, 3.0, 7.5, 15.0, 75.0 ppm in corn oil in diet for 104 wk, study duration 104 wk, Dose: 0, 3.0, 7.5, 15.0, 75.0 ppm in corn oil in diet for 104 wk, study duration 104 wk", "value": "inactive; negative"}]}, {"smiles": "O=S1(=O)CCCO1", "values": [{"measurement": "carcinogen call", "setting": "Species: MOUSE, Strain/Sex: ICR/FEMALE, Route: SUBCUTANEOUS, Dose: 0.3 MG IN WATER 1/WK FOR 63 WK, Tumor Site: Type of Lesion: INJECTION SITE: ADENOACANTHOMA, SARCOMA", "value": "active; positive"}, {"measurement": "carcinogen call", "setting": "Species: RAT, Strain/Sex: STRAIN-BD, Route: SUBCUTANEOUS, Dose: 15, 30 MG/KG IN ARACHIS OIL 1/WK FOR 1 YR, Tumor Site: Type of Lesion: INJECTION SITE: MYOSARCOMA, FIBROSARCOMA", "value": "active; positive"}, {"measurement": "carcinogen call", "setting": "Species: RAT, Strain/Sex: STRAIN-BD, Route: SUBCUTANEOUS, Dose: 15, 30 MG/KG IN WATER 1/WK FOR 1 YR, Tumor Site: Type of Lesion: INJECTION SITE: SARCOMA", "value": "active; positive"}, {"measurement": "carcinogen call", "setting": "Species: RAT, Strain/Sex: STRAIN-CD/FEMALE, Route: GAVAGE, Dose: 28, 56 MG/KG IN WATER 2/WK FOR 78 WK (LOW DOSE) OR 32 WK (HIGH DOSE), Tumor Site: Type of Lesion: BRAIN (CEREBELLUM, CEREBRUM): MALIGNANT GLIOMA, MAMMARY GLAND: ADENOCARCINOMA", "value": "active; positive"}, {"measurement": "carcinogen call", "setting": "Species: RAT, Strain/Sex: STRAIN-CD/MALE, Route: GAVAGE, Dose: 28, 56 MG/KG IN WATER 2/WK FOR 78 WK (LOW DOSE) OR 32 WK (HIGH DOSE), Tumor Site: Type of Lesion: BRAIN (CEREBELLUM, CEREBRUM): MALIGNANT GLIOMA", "value": "active; positive"}]}, {"smiles": "CC(C)CCC[C@@H](C)[C@H]1CC[C@H]2[C@@H]3C[C@H]4O[C@]45C[C@@H](O)CC[C@]5(C)[C@H]3CC[C@]12C", "values": [{"measurement": "carcinogen call", "setting": "Species: RAT, Strain/Sex: STRAIN-CD/FEMALE, Route: INJECTION, Dose: 0, 12.3 UMOL (TOTAL DOSE) 1/6 INJECTED UNDER EACH OF 3 THORACIC AND 3 INGUINAL NIPPLES ONCE (STUDY DURATION: 44 WK)", "value": "inactive; negative"}]}]}
